“Also recorded” adds a separate entry of the source.
How the values were obtained:
[1] = in vivo; cited from earlier work
[2] = test system: Jak2; test: Jak2 phosphorylation in cortical neurons exposed to IL-6; format: cell-based, mouse; settings: IL-6 20 ng/ml, 1 h, absence of astrocytes
Description: Exposure of cortical neurons to IL-6 (20 ng/ml, 1 h in the absence of astrocytes) increased the phosphorylation of the protein kinase Jak2, which transduces the signal from the activated IL-6 receptor, as illustrated by the data shown in FIG. 34A. […] Prolonged exposure (24 h) to the interleukin increased production of superoxide (as determined by DHE oxidation) and increased the expression of Nox2 in neurons, as illustrated by the data shown in FIG. 34B. The role of Nox2 activation in the increase in DHE oxidation was confirmed by co-exposure to the Nox inhibitor apocynin (0.5 mM) (FIG. 34B bottom panels).
For FIGS. 34A-34B: primary neuronal cultures were developed on coverslips as described Kinney et al., 2006, supra. After 21 days in culture, coverslips containing neurons were separated from the astrocytic monolayers, washed in HCSS and subjected to IL-6 treatment for 1 hour (FIG. 34A) or treated with IL-6 for 24 h on top of the astrocyte monolayer (FIG. 34B). After treatment, the coverslips were fixed in paraformaldehyde and processed for double fluorescence immuno-cytochemistry using the following antibodies: anti-GAD67 (1:2000, Chemicon. Red) anti-phospho-Jak2 (1:100, Cell Signaling. Green), and anti-Nox2 (1:300, monoclonal 54.1 Green). […] Secondary antibodies were conjugated to ALEXAFLUOR 488™ (green fluorescence) and ALEXAFLUOR 568™ (red fluorescence).

[3] = test system: Nox2; test: IL-6 i.p. on two consecutive days in mice: brain and synaptosomal Nox; settings: IL-6 5 μg/kg i.p. on two consecutive days
[4] = IL-6 i.p. in young and old mice: plasma IL-6 (ELISA) and tolerability; format: in vivo
Description: Plasma IL-6 is increased with aging or after intraperitoneal (i.p.) administration of IL-6, as illustrated by data shown in FIG. 44. […] IL-6 was assayed by ELISA (R&D Systems, Minneapolis, Minn.). Mice were then given a direct intraperitoneal (IP) injection of 3 μg/kg IL-6 on two consecutive days, and plasma IL-6 was assayed 16 hours (hr) after the last injection. […] Since the half-life of IL-6 in plasma is 4 hr, the sustained increase in IL-6 after injection may indicate induction of new IL-6 synthesis in young mice, which may be suppressed by the high endogenous IL-6 levels in old mice.

[5] = test system: primary neuronal cultures; test: IL-6 exposure of primary neuronal cultures: oxidized DHE, Nox2, parvalbumin and GAD67; format: cell-based, mouse
Description: IL-6 increases superoxide in a Nox dependent manner, and reduces GAD67 and parvalbumin in primary cultures, as summarized by the data graphically presented in FIG. 18. […] As before, dihydroethidium (DHE) was applied for the last hour (DHE detects superoxide and hydrogen peroxide). After fixation, ICC for PV and GAD67 was carried out as described in methods and quantitative confocal microscopy was utilized for fluorescence analysis.
DHE (1 μg/ml) was added during the last hour of treatment. Images show the increase in Nox2 immunoreactivity and oxidized DHE upon treatment with IL-6. Bar-graphs show the results of quantification of oxidized DHE and Nox2 fluorescence expressed as % of control. […] Data are means±SEM. Baseline intensities: DHE=21±4.7; Nox2=18.7±2.6.
Fluorescence confocal images of representative fields depicting the expression of parvalbumin (PV) and GAD67 in PV-interneurons. Bar-graph represents the quantification of fluorescence expressed as % of control. […] Data are means±SEM. Baseline intensities: PV=135±32; GAD67=114±26.
IL-6 potentiates ketamine effects on PV-interneurons. […] After fixation, ICC for GAD67 and parvalbumin was carried out as described by Kinney (2006) J. Neurosci. […] N=3 cultures per condition.

[6] = target: T1, NADPH oxidase (Mus musculus, UniProt Q61093); test: EPR superoxide production by forebrain synaptosomes exposed to IL-6; format: biochemical; settings: IL-6 100 ng/ml, synaptosomes
T1 sequence (Q61093 1-570): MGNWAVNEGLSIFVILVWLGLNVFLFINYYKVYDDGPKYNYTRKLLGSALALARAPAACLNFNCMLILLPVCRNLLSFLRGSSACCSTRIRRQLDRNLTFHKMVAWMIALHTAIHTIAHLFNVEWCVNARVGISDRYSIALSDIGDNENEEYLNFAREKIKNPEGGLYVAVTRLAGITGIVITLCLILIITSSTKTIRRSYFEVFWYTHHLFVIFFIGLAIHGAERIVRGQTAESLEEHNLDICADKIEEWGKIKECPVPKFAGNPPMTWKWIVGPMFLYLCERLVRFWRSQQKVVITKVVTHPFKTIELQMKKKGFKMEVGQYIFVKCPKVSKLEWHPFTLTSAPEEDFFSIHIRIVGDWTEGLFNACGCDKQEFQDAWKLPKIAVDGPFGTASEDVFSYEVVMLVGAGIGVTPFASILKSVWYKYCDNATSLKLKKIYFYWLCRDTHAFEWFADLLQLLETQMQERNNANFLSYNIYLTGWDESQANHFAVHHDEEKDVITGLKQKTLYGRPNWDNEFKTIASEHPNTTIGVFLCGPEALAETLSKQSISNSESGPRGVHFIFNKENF
T1 sequence (Q61462 1-192 partner): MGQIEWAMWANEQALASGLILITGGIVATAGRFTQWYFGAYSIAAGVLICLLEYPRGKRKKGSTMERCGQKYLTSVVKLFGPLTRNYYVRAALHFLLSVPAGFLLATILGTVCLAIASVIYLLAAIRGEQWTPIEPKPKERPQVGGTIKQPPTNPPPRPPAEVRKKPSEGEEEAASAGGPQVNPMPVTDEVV

[7] = test system: PV-interneurons in mouse prefrontal cortex; test: two-day ketamine treatment of mice: oxidized DHE, parvalbumin and GAD67 in prefrontal cortex; format: in vivo; settings: apocynin 5 mg/kg/day 1 week in drinking water; C3 1.0 mg/kg/day one month by mini-pumps
Description: Animals and treatments. […] Male C57BL6 mice were obtained from Jackson Labs, Bar Harbor, Me., at 8-12 weeks and housed in our facility until 15 weeks when they were used for experiments. Ketamine (30 mg/kg) was applied intraperitoneally (IP) on two consecutive days at around 4 pm. DHE was applied 30 min after the last ketamine injection as described (19, 20). Briefly, two serial i.p. injections of freshly prepared dihydroethidium (27 mg/kg) are given at 30 minute intervals. Eighteen hours later, mice are anesthetized with inhaled halothane, and perfused intracardially with cold saline followed by 4% paraformaldehyde in PBS. The Nox inhibitor, apocynin (5 mg/kg/day) was given in the drinking water for a total of seven days, with an assumed intake of […] H2O/mouse/day, and ketamine was applied on the last two days. […] All animal studies were approved by the Animal Care Program at the University of California, San Diego, and are in accordance the PHS Guide for the Care and Use of Laboratory Animals, USDA Regulations, and the AVMA Panel on Euthanasia.
Immunohistochemistry: Brains were frontally sliced in a vibratome into 50 μm coronal sections encompassing the prefrontal cortex region (from Bregma 2.0 to 1.3). Sequential slices were processed for floating-section double immunohistochemistry for the detection of parvalbumin and GAD67. Antigen retrieval was performed by incubation of the slices in 1% sodium borohydride for 15 min as described (see reference 34, below), followed by washing in PBS and incubation in 10% normal goat serum in PBS for 16 h at 4° C. Primary antibodies (Calbindin: 1:5000: Calretinin: 1:2000; Parvalbumin: 1:3000, all rabbit polyclonals from Swant, Bellinzona, Switzerland. GAD67: 1:1000, from Chemicon-Millipore, Temecula, Calif.) were diluted in 2% normal goat serum in PBS and applied to the slices for 18 h at 4° C., after which slices were washed in PBS and incubated in a 1:1000 dilution of ALEXAFLUOR™ (Molecular Probes, Invitrogen, Carlsbad, Calif.) conjugated goat anti-rabbit (568) or goat anti-mouse (488) antibodies for 1 hr at room temperature (rt). Slices were washed in PBS and mounted sequentially in glass slides using […]™ (Vector Laboratories, Burlingame, Calif.), covered with a coverslip and allowed to dry for at least 24 h before confocal imaging.
Six slices were analyzed per animal.
Analysis of superoxide and/or hydrogen peroxide production by confocal imaging of in vivo dihydroethidium (DHE) oxidation. Mice will be injected intraperitoneally (i.p.) with dihydroethidium.

[8] = test system: PV-interneurons; test: PV-interneuron counts in old mice after long-term SOD-mimetic treatment; format: in vivo, mouse; settings: treatment of animals from middle age (OM+C3)
Description: Aging was accompanied by a statistically significant decrease in PV-interneuron number in all regions analyzed, as shown in FIG. 41B. […] Statistical significance was determined by ANOVA followed by Tukey's test.

[9] = test system: primary neuronal cultures; test: DHE oxidation (superoxide and/or hydrogen peroxide production) in primary neuronal cultures exposed to ketamine; format: cell-based, mouse
[10] = test system: PV-interneurons; test: parvalbumin and GAD67 immunoreactivity in PV-interneurons in primary neuronal cultures; settings: co-exposure with ketamine 24 h; muscimol 10 μM, C3, apocynin 0.5 mM
[11] = test system: pyramidal layer of CA1 in the aged hippocampus; test: in vivo superoxide production in CA1 of the aged hippocampus (DHE confocal imaging); set-up: species or system mouse; settings: old mice; C3 by oral administration; apocynin
Description: Analysis of superoxide and/or hydrogen peroxide production by confocal imaging of in vivo dihydroethidium (DHE) oxidation. Mice will be injected intraperitoneally (i.p.) with dihydroethidium. Briefly, two serial i.p. injections of freshly prepared dihydroethidium (27 mg/kg) are given at 30 minute intervals. Eighteen hours later, mice are anesthetized with inhaled halothane, and are perfused intracardially with cold saline followed by 4% paraformaldehyde in PBS. Brains are removed and post-fixed in 2% paraformaldehyde for >24 h. Following fixation, brains are cut into 50 μm coronal sections and co-labeled with the appropriate primary and secondary antibodies for fluorescence visualization. […] First, an image is taken in the fluorescence channel of the ICC-fluorophor and then the channel is switched to image fluorescence from DHE oxidation. […] Using the image pairs for each field and MetaMorph software, an analyst blind to the group circles the outline of each ICC-labeled cell and then switches to the DHE oxidation image. The average fluorescence intensity for each cell of interest is logged, and values averaged to determine the mean fluorescence/cell.

## IL-6: pro-inflammatory cytokine interleukin-6
[1]
  half-life in plasma: 4 h
[2]
  phosphorylation of Jak2: increased
[3]
  Nox activity in synaptosomal preparations: significant induction
[4]; 3 μg/kg IL-6 i.p. on two consecutive days
  plasma IL-6 16 hr after the last injection: increased plasma IL-6 in young, but not old, mice
[4]; IL-6 12 μg/kg
  tolerability of higher doses: induced the sickness response and generalized inflammatory reaction
[5]; IL-6 10 ng/ml, 24 h
  immunoreactivity of GAD67 and parvalbumin in PV-interneurons: decreased
  levels of DHE oxidation: increased
[5]; IL-6 10 ng/ml, ketamine, 24 h
  effect on parvalbumin and GAD67 immunoreactivity with sub-threshold ketamine: increased the effects of ketamine
[5]; IL-6, 24 hours
  expression of Nox2: pronounced increase
[6]
  superoxide production (EPR, DEPMPO): small but significant increase

## tris malonic acid C60 [C3]
[7]
  effect on ketamine-induced increase in oxidized DHE in vivo: prevented
  effect on ketamine-mediated loss of parvalbumin immunoreactivity in PV-interneurons in vivo: completely prevented
[8]
  effect on age-related reduction of PV-interneuron numbers: prevented the reduction of PV-interneuron numbers in CA1 and CA3, but not in DG
[9]
  effect on ketamine-mediated increase in ROS / free radical production (DHE fluorescence): prevented
  effect on ketamine-mediated increase in oxidized DHE: prevented
[10]
  effect on ketamine-mediated loss of parvalbumin and GAD67 immunoreactivity in PV-interneurons: prevented; also recorded: attenuated
[11]
  effect on elevated levels of superoxide in the pyramidal layer of CA1 in the aged hippocampus: prevented
